This note sets out measurements from ChEMBL document CHEMBL3862033 (J Med Chem, 2016).

T3 sequence (P28223 whole entry): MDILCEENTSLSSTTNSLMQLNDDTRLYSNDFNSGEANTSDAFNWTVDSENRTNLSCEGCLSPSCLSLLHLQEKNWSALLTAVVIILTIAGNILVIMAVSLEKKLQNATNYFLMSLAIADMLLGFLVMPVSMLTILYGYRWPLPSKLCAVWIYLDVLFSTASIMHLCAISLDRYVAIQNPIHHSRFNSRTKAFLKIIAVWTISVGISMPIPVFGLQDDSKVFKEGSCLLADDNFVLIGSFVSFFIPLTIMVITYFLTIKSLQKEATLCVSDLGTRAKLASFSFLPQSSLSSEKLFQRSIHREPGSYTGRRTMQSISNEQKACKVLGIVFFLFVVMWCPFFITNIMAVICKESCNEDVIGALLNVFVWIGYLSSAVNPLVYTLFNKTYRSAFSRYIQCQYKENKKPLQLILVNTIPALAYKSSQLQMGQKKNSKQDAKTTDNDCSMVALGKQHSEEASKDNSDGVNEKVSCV
Sequence of 5-hydroxytryptamine receptor 1D (Homo sapiens) (P28221 whole entry): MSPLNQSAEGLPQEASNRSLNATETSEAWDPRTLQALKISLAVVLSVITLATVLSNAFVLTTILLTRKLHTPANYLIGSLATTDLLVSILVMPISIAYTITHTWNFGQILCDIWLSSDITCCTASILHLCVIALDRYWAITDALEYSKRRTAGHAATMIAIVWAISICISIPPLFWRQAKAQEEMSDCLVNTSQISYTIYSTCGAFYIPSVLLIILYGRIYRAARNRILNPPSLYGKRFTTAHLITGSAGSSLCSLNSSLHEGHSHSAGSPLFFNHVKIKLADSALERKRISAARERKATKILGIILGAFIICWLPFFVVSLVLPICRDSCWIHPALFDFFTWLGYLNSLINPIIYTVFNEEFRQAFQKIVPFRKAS
Sequence of 5-hydroxytryptamine receptor 1B (Homo sapiens) (P28222 whole entry): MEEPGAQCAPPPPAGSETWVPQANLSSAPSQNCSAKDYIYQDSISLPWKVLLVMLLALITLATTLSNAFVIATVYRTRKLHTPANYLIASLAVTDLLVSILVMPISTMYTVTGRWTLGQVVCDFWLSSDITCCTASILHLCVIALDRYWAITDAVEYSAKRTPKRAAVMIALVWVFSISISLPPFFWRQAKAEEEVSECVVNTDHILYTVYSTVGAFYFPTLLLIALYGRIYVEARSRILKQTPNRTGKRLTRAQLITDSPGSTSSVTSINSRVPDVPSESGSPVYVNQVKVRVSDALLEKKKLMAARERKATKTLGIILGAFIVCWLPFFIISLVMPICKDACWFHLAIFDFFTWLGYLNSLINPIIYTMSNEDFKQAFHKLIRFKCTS

The first experiment has as its target T1, 5-hydroxytryptamine receptor 1A (Homo sapiens) (UniProt P08908).
T1 sequence (whole entry): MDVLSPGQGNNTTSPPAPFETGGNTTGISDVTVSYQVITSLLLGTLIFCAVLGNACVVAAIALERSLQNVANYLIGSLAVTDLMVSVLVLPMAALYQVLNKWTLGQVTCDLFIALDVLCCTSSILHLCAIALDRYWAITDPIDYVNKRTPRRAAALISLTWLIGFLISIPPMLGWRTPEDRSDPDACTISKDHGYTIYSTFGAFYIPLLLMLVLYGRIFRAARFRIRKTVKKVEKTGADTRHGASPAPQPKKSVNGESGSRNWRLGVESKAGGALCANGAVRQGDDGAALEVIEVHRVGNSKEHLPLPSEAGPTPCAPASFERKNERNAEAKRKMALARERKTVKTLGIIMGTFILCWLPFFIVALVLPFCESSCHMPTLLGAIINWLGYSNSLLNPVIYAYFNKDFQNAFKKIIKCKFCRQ
The experiment is described as follows: Displacement of [3H]WAY100635 from human 5-HT1AR expressed in CHO cell membranes at 10 uM incubated for 90 mins under dark condition by microbeta scintillation counting method relative to control.
Conditions: not given
Background: In a radioligand displacement assay an active substance lowers the binding of a labelled ligand.
On to `CC[C@@H](Nc1nc(Cl)nc2c1ncn2[C@H]1[C@H](O)[C@H](O)[C@]2(CO)C[C@H]12)C1CC1`, for which the inhibition was less than 50%.

The compound `CCC(CC)Nc1nc(Cl)nc2c1ncn2[C@H]1[C@H](O)[C@H](O)[C@]2(CO)C[C@H]12` gave an inhibition of less than 50%.

In the next experiment the target is 5-hydroxytryptamine receptor 4 (Homo sapiens) (UniProt Q13639). The experiment is described as follows: Displacement of [3H]GR113808 from human 5-HT4 receptor at 10 uM incubated for 90 mins under dark condition by microbeta scintillation counting method relative to control.
Sequence of 5-hydroxytryptamine receptor 4 (Homo sapiens) (Q13639 whole entry): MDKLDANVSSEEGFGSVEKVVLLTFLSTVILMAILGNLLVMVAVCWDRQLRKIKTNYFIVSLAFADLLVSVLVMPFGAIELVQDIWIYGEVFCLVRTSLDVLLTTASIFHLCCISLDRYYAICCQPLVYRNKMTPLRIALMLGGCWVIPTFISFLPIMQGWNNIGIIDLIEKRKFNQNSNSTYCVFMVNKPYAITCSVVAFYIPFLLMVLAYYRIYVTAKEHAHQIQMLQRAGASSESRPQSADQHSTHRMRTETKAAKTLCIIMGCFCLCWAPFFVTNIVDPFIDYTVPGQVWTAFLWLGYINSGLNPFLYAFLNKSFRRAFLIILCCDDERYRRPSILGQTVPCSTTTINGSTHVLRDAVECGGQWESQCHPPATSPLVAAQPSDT
Conditions: not given
`CC[C@@H](Nc1nc(Cl)nc2c1ncn2[C@H]1[C@H](O)[C@H](O)[C@]2(CO)C[C@H]12)C1CC1` came in with an inhibition of less than 50%.

`CCC(CC)Nc1nc(Cl)nc2c1ncn2[C@H]1[C@H](O)[C@H](O)[C@]2(CO)C[C@H]12` returned an inhibition of less than 50%.

For the next experiment, the target named is T2, 5-hydroxytryptamine receptor 2C (Homo sapiens, UniProt P28335).
T2 sequence (P28335 whole entry): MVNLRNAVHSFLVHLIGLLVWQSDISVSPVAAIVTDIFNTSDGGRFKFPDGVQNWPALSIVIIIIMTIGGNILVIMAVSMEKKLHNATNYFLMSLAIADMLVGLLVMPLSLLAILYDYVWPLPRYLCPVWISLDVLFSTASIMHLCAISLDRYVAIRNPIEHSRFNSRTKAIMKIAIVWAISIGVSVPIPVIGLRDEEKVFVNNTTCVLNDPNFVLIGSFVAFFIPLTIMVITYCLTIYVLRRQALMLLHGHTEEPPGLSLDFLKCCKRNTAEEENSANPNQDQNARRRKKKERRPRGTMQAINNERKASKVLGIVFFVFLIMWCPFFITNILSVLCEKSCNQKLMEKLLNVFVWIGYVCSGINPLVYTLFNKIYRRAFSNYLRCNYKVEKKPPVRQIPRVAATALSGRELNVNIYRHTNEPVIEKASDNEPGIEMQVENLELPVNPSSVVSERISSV
The experiment is described as follows: Displacement of [3H]mesulergine from human 5-HT2CR expressed in Flp-In HEK cell membranes incubated for 90 mins under dark condition by microbeta scintillation counting method. Details: species or system HEK293.
Conditions: not given
With `CC[C@@H](Nc1nc(Cl)nc2c1ncn2[C@H]1[C@H](O)[C@H](O)[C@]2(CO)C[C@H]12)C1CC1`, affinity was put at a Ki of 371 nM.

Compound `CCC(CC)Nc1nc(Cl)nc2c1ncn2[C@H]1[C@H](O)[C@H](O)[C@]2(CO)C[C@H]12` gave a Ki of 703 nM.

For another experiment, the target named is 5-hydroxytryptamine receptor 1E (Homo sapiens) (UniProt P28566). Description: Displacement of [3H]5-HT from human 5-HT1E receptor expressed in HEK cell membranes at 10 uM incubated for 90 mins under dark condition by microbeta scintillation counting method relative to control. Conditions: HEK293.
Sequence of 5-hydroxytryptamine receptor 1E (Homo sapiens) (P28566 whole entry): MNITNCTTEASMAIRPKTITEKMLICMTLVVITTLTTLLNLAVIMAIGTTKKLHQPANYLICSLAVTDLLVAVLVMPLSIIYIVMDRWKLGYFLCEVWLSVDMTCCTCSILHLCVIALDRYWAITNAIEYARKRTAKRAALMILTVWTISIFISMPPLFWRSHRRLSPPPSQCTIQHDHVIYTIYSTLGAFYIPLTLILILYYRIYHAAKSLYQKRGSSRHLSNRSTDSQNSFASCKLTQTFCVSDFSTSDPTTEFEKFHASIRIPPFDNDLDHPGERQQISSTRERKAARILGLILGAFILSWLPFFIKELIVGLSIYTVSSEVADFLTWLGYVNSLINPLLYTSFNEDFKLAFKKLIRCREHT
With `CC[C@@H](Nc1nc(Cl)nc2c1ncn2[C@H]1[C@H](O)[C@H](O)[C@]2(CO)C[C@H]12)C1CC1`, the inhibition was less than 50%.

Consider `CCC(CC)Nc1nc(Cl)nc2c1ncn2[C@H]1[C@H](O)[C@H](O)[C@]2(CO)C[C@H]12`, for which the inhibition was less than 50%.

Another experiment has as its target T3, 5-hydroxytryptamine receptor 2A (Homo sapiens, UniProt P28223). Description: Displacement of [3H]ketanserin from human 5-HT2A receptor expressed in HEK-T cell membranes incubated for 90 mins under dark condition by microbeta scintillation counting method.
Conditions: not given
Regarding `CC[C@@H](Nc1nc(Cl)nc2c1ncn2[C@H]1[C@H](O)[C@H](O)[C@]2(CO)C[C@H]12)C1CC1`, the Ki was more than 10000 nM.

As for `CCC(CC)Nc1nc(Cl)nc2c1ncn2[C@H]1[C@H](O)[C@H](O)[C@]2(CO)C[C@H]12`, the Ki was more than 10000 nM.

For another experiment, the target named is 5-hydroxytryptamine receptor 6 (Homo sapiens) (UniProt P50406). The experiment is described as follows: Displacement of [3H]LSD from human 5-HT6 receptor expressed in HEK cell membranes at 10 uM incubated for 90 mins under dark condition by microbeta scintillation counting method relative to control. The settings on record: HEK293.
Sequence of 5-hydroxytryptamine receptor 6 (Homo sapiens) (P50406 whole entry): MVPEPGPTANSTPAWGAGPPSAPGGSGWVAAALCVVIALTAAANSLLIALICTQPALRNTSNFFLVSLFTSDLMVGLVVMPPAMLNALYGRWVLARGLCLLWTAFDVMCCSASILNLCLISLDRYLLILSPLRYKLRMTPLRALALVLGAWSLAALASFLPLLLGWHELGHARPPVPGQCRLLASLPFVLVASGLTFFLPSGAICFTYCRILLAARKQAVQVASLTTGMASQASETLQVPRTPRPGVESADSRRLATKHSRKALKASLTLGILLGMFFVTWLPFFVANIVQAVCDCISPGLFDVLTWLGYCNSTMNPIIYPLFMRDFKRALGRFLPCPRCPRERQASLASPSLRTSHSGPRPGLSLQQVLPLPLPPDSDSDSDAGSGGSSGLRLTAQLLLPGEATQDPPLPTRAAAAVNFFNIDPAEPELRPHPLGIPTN
`CC[C@@H](Nc1nc(Cl)nc2c1ncn2[C@H]1[C@H](O)[C@H](O)[C@]2(CO)C[C@H]12)C1CC1` registered an inhibition of less than 50%.

On to `CCC(CC)Nc1nc(Cl)nc2c1ncn2[C@H]1[C@H](O)[C@H](O)[C@]2(CO)C[C@H]12`, for which the inhibition is less than 50%.

In the next experiment the target is T4, 5-hydroxytryptamine receptor 3A (Homo sapiens) (UniProt P46098).
T4 sequence (whole entry): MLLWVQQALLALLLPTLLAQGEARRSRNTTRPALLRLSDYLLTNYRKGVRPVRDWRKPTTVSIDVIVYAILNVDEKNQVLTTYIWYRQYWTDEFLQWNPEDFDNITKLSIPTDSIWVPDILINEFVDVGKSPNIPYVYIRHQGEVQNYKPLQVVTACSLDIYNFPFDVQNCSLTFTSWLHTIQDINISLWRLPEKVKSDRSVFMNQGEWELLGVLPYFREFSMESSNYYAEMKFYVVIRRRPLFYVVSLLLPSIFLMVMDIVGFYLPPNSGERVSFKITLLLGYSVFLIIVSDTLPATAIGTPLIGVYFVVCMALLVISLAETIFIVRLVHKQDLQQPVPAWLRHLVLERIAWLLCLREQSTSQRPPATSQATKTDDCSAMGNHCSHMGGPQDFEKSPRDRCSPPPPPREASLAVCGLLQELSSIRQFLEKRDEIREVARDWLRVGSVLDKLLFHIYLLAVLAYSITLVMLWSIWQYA
Description: Displacement of [3H]GR65630 from human 5-HT3 receptor expressed in HEK-T cell membranes at 10 uM incubated for 90 mins under dark condition by microbeta scintillation counting method relative to control.
Conditions: not given
The compound `CC[C@@H](Nc1nc(Cl)nc2c1ncn2[C@H]1[C@H](O)[C@H](O)[C@]2(CO)C[C@H]12)C1CC1` returned an inhibition of less than 50%.

Turning to `CCC(CC)Nc1nc(Cl)nc2c1ncn2[C@H]1[C@H](O)[C@H](O)[C@]2(CO)C[C@H]12`, the inhibition was less than 50%.

The target of a further experiment is T5, 5-hydroxytryptamine receptor 2C (Homo sapiens) (UniProt P28335).
T5 sequence (whole entry): T2 sequence (P28335 whole entry)
Description: Displacement of [3H]mesulergine from human 5-HT2CR expressed in Flp-In HEK cell membranes at 10 uM incubated for 90 mins under dark condition by microbeta scintillation counting method relative to control. Conditions: HEK293.
Regarding `CC[C@@H](Nc1nc(Cl)nc2c1ncn2[C@H]1[C@H](O)[C@H](O)[C@]2(CO)C[C@H]12)C1CC1`, the inhibition is more than 50%.

In turn, `CCC(CC)Nc1nc(Cl)nc2c1ncn2[C@H]1[C@H](O)[C@H](O)[C@]2(CO)C[C@H]12` registered an inhibition of more than 50%.

The next experiment concerns the target 5-hydroxytryptamine receptor 1B (Homo sapiens) (UniProt P28222). Description: Displacement of [3H]5-CT from human 5-HT1BR expressed in HEK cell membranes at 10 uM incubated for 90 mins under dark condition by microbeta scintillation counting method relative to control. The settings on record: HEK293.
The compound `CC[C@@H](Nc1nc(Cl)nc2c1ncn2[C@H]1[C@H](O)[C@H](O)[C@]2(CO)C[C@H]12)C1CC1` returned an inhibition of less than 50%.

Consider `CCC(CC)Nc1nc(Cl)nc2c1ncn2[C@H]1[C@H](O)[C@H](O)[C@]2(CO)C[C@H]12`, for which the inhibition is less than 50%.

The target of a further experiment is 5-hydroxytryptamine receptor 5A (Homo sapiens) (UniProt P47898). Description: Displacement of [3H]LSD from human 5-HT5A receptor expressed in Flp-In-CHO cell membranes incubated for 90 mins under dark condition by microbeta scintillation counting method relative to control. Details: concentration or dose not given beside the values.
Sequence of 5-hydroxytryptamine receptor 5A (Homo sapiens) (P47898 whole entry): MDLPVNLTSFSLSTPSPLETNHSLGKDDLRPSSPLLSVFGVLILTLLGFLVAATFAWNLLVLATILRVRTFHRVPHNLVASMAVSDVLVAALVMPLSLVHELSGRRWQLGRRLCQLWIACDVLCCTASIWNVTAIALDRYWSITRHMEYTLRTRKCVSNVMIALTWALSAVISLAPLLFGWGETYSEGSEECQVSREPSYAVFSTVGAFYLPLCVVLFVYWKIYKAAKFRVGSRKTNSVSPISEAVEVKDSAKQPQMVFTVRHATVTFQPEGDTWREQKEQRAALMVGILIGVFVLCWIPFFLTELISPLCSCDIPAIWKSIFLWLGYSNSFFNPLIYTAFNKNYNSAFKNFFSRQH
Conditions: not given
In turn, `CC[C@@H](Nc1nc(Cl)nc2c1ncn2[C@H]1[C@H](O)[C@H](O)[C@]2(CO)C[C@H]12)C1CC1` yielded an inhibition of less than 50%.

`CCC(CC)Nc1nc(Cl)nc2c1ncn2[C@H]1[C@H](O)[C@H](O)[C@]2(CO)C[C@H]12` showed an inhibition of less than 50%.

For another experiment, the target named is Adenosine receptor A2a (Homo sapiens, UniProt P29274). The experiment is described as follows: Displacement of [3 H]2-[p-(2-carboxyethyl)phenyl-ethylamino]-5'-N-ethylcarboxamidoadenosine from recombinant human adenosine receptor A2A expressed in HEK293 cell membranes after 60 mins by liquid scintillation counting method.
Sequence of Adenosine receptor A2a (P29274 whole entry): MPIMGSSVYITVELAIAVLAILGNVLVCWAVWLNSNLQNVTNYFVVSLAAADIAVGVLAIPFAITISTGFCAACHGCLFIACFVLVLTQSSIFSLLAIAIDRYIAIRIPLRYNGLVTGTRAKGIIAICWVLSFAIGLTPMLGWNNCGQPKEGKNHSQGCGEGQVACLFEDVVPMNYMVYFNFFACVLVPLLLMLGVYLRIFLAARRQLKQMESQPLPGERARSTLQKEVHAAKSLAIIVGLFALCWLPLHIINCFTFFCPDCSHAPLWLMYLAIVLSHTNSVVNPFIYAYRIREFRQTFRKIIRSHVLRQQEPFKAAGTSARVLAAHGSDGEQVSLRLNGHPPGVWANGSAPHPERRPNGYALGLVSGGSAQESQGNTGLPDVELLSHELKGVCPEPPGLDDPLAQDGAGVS
Conditions: not given
On to `CC[C@@H](Nc1nc(Cl)nc2c1ncn2[C@H]1[C@H](O)[C@H](O)[C@]2(CO)C[C@H]12)C1CC1`, for which the Ki came to 1880 nM.

Regarding `CCC(CC)Nc1nc(Cl)nc2c1ncn2[C@H]1[C@H](O)[C@H](O)[C@]2(CO)C[C@H]12`, the Ki was found to be 1750 nM.

A further experiment addresses 5-hydroxytryptamine receptor 1D (Homo sapiens) (UniProt P28221). Description: Displacement of [3H]5-CT from human 5-HT1D receptor expressed in HEK-T cell membranes at 10 uM incubated for 90 mins under dark condition by microbeta scintillation counting method relative to control.
Conditions: not given
Regarding `CC[C@@H](Nc1nc(Cl)nc2c1ncn2[C@H]1[C@H](O)[C@H](O)[C@]2(CO)C[C@H]12)C1CC1`, the inhibition is less than 50%.

In turn, `CCC(CC)Nc1nc(Cl)nc2c1ncn2[C@H]1[C@H](O)[C@H](O)[C@]2(CO)C[C@H]12` came in with an inhibition of less than 50%.

Another experiment has as its target T6, Adenosine receptor A1 (Homo sapiens, UniProt P30542).
T6 sequence (P30542 whole entry): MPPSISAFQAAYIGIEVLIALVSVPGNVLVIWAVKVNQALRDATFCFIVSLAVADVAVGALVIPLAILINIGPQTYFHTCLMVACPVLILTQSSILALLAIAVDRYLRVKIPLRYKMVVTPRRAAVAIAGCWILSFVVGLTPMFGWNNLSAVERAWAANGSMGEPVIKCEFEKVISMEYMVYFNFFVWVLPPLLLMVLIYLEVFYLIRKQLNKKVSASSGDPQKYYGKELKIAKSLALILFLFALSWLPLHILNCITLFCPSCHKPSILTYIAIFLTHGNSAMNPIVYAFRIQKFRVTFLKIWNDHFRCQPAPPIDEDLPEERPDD
Description: Displacement of [3H]N6-phenylisopropyladenosine from recombinant human A1AR expressed in CHO cell membranes after 60 mins by liquid scintillation counting method.
Conditions: not given
As for `CC[C@@H](Nc1nc(Cl)nc2c1ncn2[C@H]1[C@H](O)[C@H](O)[C@]2(CO)C[C@H]12)C1CC1`, the Ki was 76 nM.

Consider `CCC(CC)Nc1nc(Cl)nc2c1ncn2[C@H]1[C@H](O)[C@H](O)[C@]2(CO)C[C@H]12`, for which the Ki came out at 112 nM.

The target of another experiment is T7, Adenosine receptor A3 (Homo sapiens, UniProt P0DMS8).
T7 sequence (P0DMS8 whole entry): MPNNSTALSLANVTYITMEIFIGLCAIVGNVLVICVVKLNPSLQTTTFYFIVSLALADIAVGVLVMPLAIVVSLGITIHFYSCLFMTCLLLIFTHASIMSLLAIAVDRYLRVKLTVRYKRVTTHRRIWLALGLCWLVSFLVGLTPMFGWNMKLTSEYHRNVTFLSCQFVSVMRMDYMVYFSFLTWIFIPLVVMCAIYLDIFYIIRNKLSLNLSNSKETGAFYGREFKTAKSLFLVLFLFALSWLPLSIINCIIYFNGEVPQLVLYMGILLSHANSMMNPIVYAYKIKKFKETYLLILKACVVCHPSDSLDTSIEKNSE
Description: Displacement of [125l]N 6-(4-amino-3-iodobenzyl)adenosine-5'-N-methyluronamide from recombinant human A3AR expressed in CHO cell membranes after 60 mins by gamma counting method.
Conditions: not given
On to `CCC(CC)Nc1nc(Cl)nc2c1ncn2[C@H]1[C@H](O)[C@H](O)[C@]2(CO)C[C@H]12`, for which the Ki stood at 1200 nM.

For another experiment, the target named is 5-hydroxytryptamine receptor 7 (Homo sapiens) (UniProt P34969). Description: Displacement of [3H]LSD from human 5-HT7A receptor expressed in HEK cell membranes at 10 uM incubated for 90 mins under dark condition by microbeta scintillation counting method relative to control. Conditions: HEK293.
Sequence of 5-hydroxytryptamine receptor 7 (Homo sapiens) (P34969 whole entry): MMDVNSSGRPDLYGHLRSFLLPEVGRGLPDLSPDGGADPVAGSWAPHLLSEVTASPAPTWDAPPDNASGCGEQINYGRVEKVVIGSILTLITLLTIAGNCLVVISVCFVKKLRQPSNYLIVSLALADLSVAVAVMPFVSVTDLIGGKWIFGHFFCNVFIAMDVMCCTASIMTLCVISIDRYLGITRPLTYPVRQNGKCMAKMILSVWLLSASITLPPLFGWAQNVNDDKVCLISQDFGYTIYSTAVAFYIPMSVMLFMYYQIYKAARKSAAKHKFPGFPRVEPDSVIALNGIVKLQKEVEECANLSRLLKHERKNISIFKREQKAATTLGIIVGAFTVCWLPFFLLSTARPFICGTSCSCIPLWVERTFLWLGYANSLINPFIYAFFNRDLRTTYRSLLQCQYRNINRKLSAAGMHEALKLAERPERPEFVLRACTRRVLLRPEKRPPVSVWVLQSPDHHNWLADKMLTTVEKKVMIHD
For `CC[C@@H](Nc1nc(Cl)nc2c1ncn2[C@H]1[C@H](O)[C@H](O)[C@]2(CO)C[C@H]12)C1CC1`, the inhibition was less than 50%.

For the compound `CCC(CC)Nc1nc(Cl)nc2c1ncn2[C@H]1[C@H](O)[C@H](O)[C@]2(CO)C[C@H]12`, the inhibition is less than 50%.

A further experiment addresses T3, 5-hydroxytryptamine receptor 2A. Description: Displacement of [3H]ketanserin from human 5-HT2A receptor expressed in HEK-T cell membranes at 10 uM incubated for 90 mins under dark condition by microbeta scintillation counting method relative to control.
Conditions: not given
On to `CC[C@@H](Nc1nc(Cl)nc2c1ncn2[C@H]1[C@H](O)[C@H](O)[C@]2(CO)C[C@H]12)C1CC1`, for which the inhibition was less than 10%.

Turning to `CCC(CC)Nc1nc(Cl)nc2c1ncn2[C@H]1[C@H](O)[C@H](O)[C@]2(CO)C[C@H]12`, the inhibition turned out to be 12%.

One may read the inhibition as the share of the control response that was lost under treatment. The Ki is a measure of affinity in units of concentration, obtained from inhibition or displacement.
